Where a name gives a salt, the structure may show the parent alone. Read-outs that look alike come from different tables or passages of the source.
Tests used:
Test in all cases: biochemical
MMP-1 = biological target: T1, MMP-1 (Homo sapiens, UniProt P03956); settings: read-out: MMP-1 IC50
T1 construct: made in house; host or cells: transfected HT-1080 cells (provided by Dr. Harold Welgus, Washington University)
T1 sequence (P03956 100-469): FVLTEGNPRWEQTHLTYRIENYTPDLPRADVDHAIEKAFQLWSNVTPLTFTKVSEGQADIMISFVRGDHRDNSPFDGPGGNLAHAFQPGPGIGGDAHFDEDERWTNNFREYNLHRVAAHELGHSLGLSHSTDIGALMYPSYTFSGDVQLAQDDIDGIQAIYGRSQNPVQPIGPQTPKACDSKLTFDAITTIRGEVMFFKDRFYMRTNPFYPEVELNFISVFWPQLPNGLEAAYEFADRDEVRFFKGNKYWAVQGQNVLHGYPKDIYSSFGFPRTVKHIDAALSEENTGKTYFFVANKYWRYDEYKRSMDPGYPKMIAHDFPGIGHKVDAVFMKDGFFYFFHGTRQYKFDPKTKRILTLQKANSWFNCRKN
Description: (§1) The compounds prepared in the manner described in the Examples above were assayed for activity by an in vitro assay. […] Briefly, 4-aminophenylmercuric acetate (APMA) or trypsin-activated MMPs were incubated with various concentrations of the inhibitor compound at room temperature for 5 minutes.
(§2) The expressed enzyme was purified first over a heparin agarose column and then over a chelating zinc chloride column. The proenzyme was activated by APMA for use in the assay.
(§3) MMP-1 expressed in transfected HT-1080 cells was provided by Dr. Harold Welgus of Washington University, St. Louis, Mo. The enzyme was also activated using APMA and was then purified over a hydroxamic acid column. Dr. Welgus also provided transfected HT-1080 cells that expressed MMP-9. Transfected cells that expressed MMP-2 were provided by Dr. Gregory Goldberg, also of Washington University. Studies with MMP-7 were carried out at pH 7.5 in the presence of 0.02% 2-mercaptoethanol using conditions otherwise similar to those used for the other enzymes. The enzyme was obtaind from a hMMP-7-expressing E. coli clone that was a gift of Dr. Steven Shapiro of Washington University, St. Louis, Mo. Further specifics for preparation and use of these enzymes can be found in the scientific literature describing these enzymes. See, for example, Enzyme Nomenclature, Academic Press, San Diego, Calif. […] The enzyme substrate is a methoxycoumarin-containing polypeptide having the following sequence:
(§4) MCA-ProLeuGlyLeuDpaAlaArgNH2, wherein MCA is methoxycoumarin and Dpa is 3-(2,4-dinitrophenyl)-L-2,3-diaminopropionyl alanine.
(§5) The buffer used for assays contained 100 mM Tris-HCl, 100 mM NaCl, 10 mM CaCl2 and 0.05 percent polyethyleneglycol (23) lauryl ether at a pH value of 7.5. Assays were carried out at room temperature, and dimethyl sulfoxide (DMSO) at a final concentration of 1 percent was used to dissolve inhibitor compound.
(§6) The assayed inhibitor compound in DMSO/buffer solution was compared to an equal amount of DMSO/buffer with no inhibitor as control using Microfluor White Plates (Dynatech). The inhibitor or control solution was maintained in the plate for 10 minutes and the substrate was added to provide a final concentration of 4 μM.
(§7) Inhibition was measured as a reduction in fluorescent intensity as a function of inhibitor concentration, using a Perkin Elmer L550 plate reader. The IC50 values were calculated from those values. The results are set forth in the Inhibition Table A, below, reported in terms of IC50 to three significant figures, where appropriate.

MMP-13 = biological target: T2, MMP-13 (Homo sapiens, UniProt P45452)
T2 construct: made in house; host or cells: baculovirus / insect cells
Description: as §1, §2, §3, §4, §5, §6, §7

MMP-2 = biological target: T3, MMP-2 (Homo sapiens, UniProt P08253)
T3 construct: made in house; provided by Dr. Gregory Goldberg, Washington University
T3 sequence (P08253 110-660): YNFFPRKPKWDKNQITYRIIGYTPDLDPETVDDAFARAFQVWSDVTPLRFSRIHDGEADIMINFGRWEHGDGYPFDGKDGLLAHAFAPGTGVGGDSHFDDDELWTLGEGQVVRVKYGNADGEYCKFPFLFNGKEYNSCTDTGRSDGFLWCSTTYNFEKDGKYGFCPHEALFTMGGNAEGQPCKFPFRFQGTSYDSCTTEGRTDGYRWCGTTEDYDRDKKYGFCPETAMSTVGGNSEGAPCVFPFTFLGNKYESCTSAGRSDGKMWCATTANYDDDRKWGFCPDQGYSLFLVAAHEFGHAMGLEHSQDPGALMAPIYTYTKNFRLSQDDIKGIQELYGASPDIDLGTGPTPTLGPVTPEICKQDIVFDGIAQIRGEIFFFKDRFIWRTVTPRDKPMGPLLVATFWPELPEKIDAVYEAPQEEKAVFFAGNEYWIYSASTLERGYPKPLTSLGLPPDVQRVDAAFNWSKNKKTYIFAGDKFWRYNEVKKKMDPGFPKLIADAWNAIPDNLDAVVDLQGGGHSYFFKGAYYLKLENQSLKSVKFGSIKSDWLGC
Description: as §1, §2, §3, §4, §5, §6, §7

[1] = recombinant human MMP-1, MCA peptide substrate 4 μM, pH 7.5, room temperature
[2] = recombinant human MMP-13, MCA peptide substrate 4 μM, pH 7.5, room temperature, read-out: MMP-13 IC50
[3] = MMP-13 IC50 (nM), recombinant human MMP-13, MCA peptide substrate 4 μM, pH 7.5, room temperature

Compound | IC50 (MMP-1) [nM] | IC50 (MMP-13; read-out: MMP-13 IC50) [nM] | IC50 (MMP-2; read-out: MMP-2 IC50) [nM] | IC50 (MMP-1; [1]) [nM] | further results
C[C@H]1C[C@H](C)CN(C(=O)C2CCN(c3ccc(S(=O)(=O)C4(C(=O)NO)CCNCC4)cc3)CC2)C1 (relative stereo) [Example 238, rel-4-[[4-[4-[[(3R,5R)-3,5-Dimethyl-1-piperidinyl]carbonyl]-1-piperidinyl]phenyl]sulfonyl]-N-hydroxy-4-piperidinecarboxamide, Monohydrochloride] | > 10000 | 80 |  |  | 
C[C@H]1C[C@H](C)CN(C(=O)C2CCN(c3ccc(S(=O)(=O)C4(C(=O)NO)CCN(C(=O)OC(C)(C)C)CC4)cc3)CC2)C1 (relative stereo) [Example 239, rel-1,1-Dimethylethyl 4-[[4-[4-[[(3R,5R)-3,5-Dimethyl-1-piperidinyl]carbonyl]-1-piperidinyl]-phenyl]sulfonyl]-4-[(hydroxyamino)carbonyl]-1-piperidinecarboxylate] | > 10000 | 9 | 8300 |  | 
CN(C)CCN1CCN(C(=O)C2CCN(c3ccc(S(=O)(=O)C4(C(=O)NO)CCOCC4)cc3)CC2)CC1 [Example 23] | > 10000 | 90 |  |  | 
CCOc1ccccc1N1CCN(C(=O)C2CCN(c3ccc(S(=O)(=O)C4(C(=O)NO)CCOCC4)cc3)CC2)CC1 [Example 24] | > 10000 | 23.5 | 4500 |  | 
O=C(C1CCN(c2ccc(S(=O)(=O)C3(C(=O)NO)CCOCC3)cc2)CC1)N1CCN(c2ccc(F)cc2)CC1 [Example 25] | > 10000 | 6 |  |  | IC50 (MMP-2; MMP-2 IC50 (nM)): 1600 nM
O=C(C1CCN(c2ccc(S(=O)(=O)C3(C(=O)NO)CCOCC3)cc2)CC1)N1CCN(c2ccccn2)CC1 [Example 26] | > 10000 |  | 3600 |  | 
O=C(C1CCN(c2ccc(S(=O)(=O)C3(C(=O)NO)CCOCC3)cc2)CC1)N1CCN(c2ccc(C(F)(F)F)cc2[N+](=O)[O-])CC1 [Example 32] | > 10000 | 10 | 800 |  | 
O=C(C1CCN(c2ccc(S(=O)(=O)C3(C(=O)NO)CCOCC3)cc2)CC1)N1CCN(c2ncccc2C(F)(F)F)CC1 [Example 33] | > 10000 | 20 | 4500 |  | 
CCCN(CC1CC1)C(=O)C1CCN(c2ccc(S(=O)(=O)C3(C(=O)NO)CCOCC3)cc2)CC1 [Example 35] |  |  |  | > 10000 | IC50 (MMP-13; [2]): 30 nM; IC50 (MMP-2; recombinant human MMP-2, MCA peptide substrate 4 μM, pH 7.5, room temperature, read-out: MMP-2 IC50): 9000 nM
O=C(C1CCN(c2ccc(S(=O)(=O)C3(C(=O)NO)CCOCC3)cc2)CC1)N1CCN(c2ccc(F)cc2F)CC1 [Example 36] | > 10000 | 15.8 | 2100 |  | 
O=C(C1CCN(c2ccc(S(=O)(=O)C3(C(=O)NO)CCOCC3)cc2)CC1)N1CCN(c2ccncc2)CC1 [Example 37] | > 10000 |  | 1750 |  | IC50 (MMP-13; [3]): 30 nM
O=C(C1CCN(c2ccc(S(=O)(=O)C3(C(=O)NO)CCOCC3)cc2)CC1)N1CCN(c2cnccn2)CC1 [Example 40] | > 10000 |  |  |  | IC50 (MMP-13; [3]): 26.8 nM; IC50 (MMP-2; MMP-2 IC50 (nM)): 900 nM
O=C(C1CCN(c2ccc(S(=O)(=O)C3(C(=O)NO)CCOCC3)cc2)CC1)N1CCN(c2ncc(C(F)(F)F)cc2Cl)CC1 [Example 41] | > 10000 | 70 | 5400 |  | 
O=C(C1CCN(c2ccc(S(=O)(=O)C3(C(=O)NO)CCOCC3)cc2)CC1)N1CCN(CCN2CCOCC2)CC1 [Example 42] | > 10000 | 82.5 | > 10000 |  | 
O=C(C1CCN(c2ccc(S(=O)(=O)C3(C(=O)NO)CCOCC3)cc2)CC1)N1CCN(c2cccc(Cl)c2)CC1 [Example 43] | > 10000 | 17.9 | 5000 |  | 
O=C(C1CCN(c2ccc(S(=O)(=O)C3(C(=O)NO)CCOCC3)cc2)CC1)N1CCC(CO)CC1 [Example 44] | > 10000 | 19 | 1050 |  | 

Compound | IC50 (MMP-1) [nM] | IC50 (MMP-13; read-out: MMP-13 IC50) [nM] | IC50 (MMP-2; read-out: MMP-2 IC50) [nM] | IC50 (MMP-1; [1]) [nM] | further results
C[C@@H]1CN(C(=O)C2CCN(c3ccc(S(=O)(=O)C4(C(=O)NO)CCOCC4)cc3)CC2)C[C@H](C)N1 [Example 46] | > 10000 |  |  |  | IC50 (MMP-2; MMP-2 IC50 (nM)): 5700 nM
CC1CCCN(C(=O)C2CCN(c3ccc(S(=O)(=O)C4(C(=O)NO)CCOCC4)cc3)CC2)C1 (centres unmarked) [Example 47] | > 10000 | 11.4 | 6000 |  | 
O=C(C1CCN(c2ccc(S(=O)(=O)C3(C(=O)NO)CCOCC3)cc2)CC1)N1CCN(c2nccc(C(F)(F)F)n2)CC1 [Example 49] | > 10000 | 20 | 6500 |  | 
C[C@@H]1C[C@H](C)CN(C(=O)C2CCN(c3ccc(S(=O)(=O)C4(C(=O)NO)CCNCC4)cc3)CC2)C1 [Example 240, rel-4-[[4-[4-[[(3R,5S)-3,5-Dimethyl-1-piperidinyl]carbonyl]-1-piperidinyl]phenyl]sulfonyl]-N-hydroxy-4-piperidinecarboxamide, Monohydrochloride] |  |  |  | > 10000 | IC50 (MMP-13; [2]): 76.9 nM
CC1CC(C)CN(C(=O)C2CCN(c3ccc(S(=O)(=O)C4(C(=O)NO)CCN(C(=O)CN5CCN(CCN(C)C)CC5)CC4)cc3)CC2)C1 (centres unmarked) [Example 308] |  |  |  | > 10000 | IC50 (MMP-13; [2]): 40 nM
CC1CC(C)CN(C(=O)C2CCN(c3ccc(S(=O)(=O)C4(C(=O)NO)CCN(C(=O)CNCC(F)(F)F)CC4)cc3)CC2)C1 (centres unmarked) [Example 310] |  |  |  | > 10000 | IC50 (MMP-13; [2]): 60 nM
O=C(NO)C1(S(=O)(=O)c2ccc(N3CCC(SCc4ccccc4)CC3)cc2)CCN(C2CC2)CC1 [Example 417] |  |  |  | > 10000 | IC50 (MMP-13; [2]): 0.7 nM
COc1ccc(C(=O)C2CCN(c3ccc(S(=O)(=O)C4(C(=O)NO)CCN(C(=O)c5ccco5)CC4)cc3)CC2)cc1 [Example 436] |  |  |  | > 10000 | 
COc1ccc(C(=O)C2CCN(c3ccc(S(=O)(=O)C4(C(=O)NO)CCNCC4)cc3)CC2)cc1 [Example 437] |  |  |  | > 10000 | 
O=C(NO)C1(S(=O)(=O)c2ccc(N3CCC(SCc4ccc(OC(F)(F)F)cc4)CC3)cc2)CCN(C2CC2)CC1 [Example 454] |  |  |  | > 10000 | 
O=C(NO)C1(S(=O)(=O)c2ccc(N3CCC(SCc4ccc(OC(F)(F)F)cc4)CC3)cc2)CCNCC1 [Example 460] |  |  |  | > 10000 | 
O=C(NO)C1(S(=O)(=O)c2ccc(N3CCC(SCc4ccccc4Cl)CC3)cc2)CCN(C2CC2)CC1 [Example 461] |  |  |  | > 10000 | 
O=C(NO)C1(S(=O)(=O)c2ccc(N3CCC(SCc4cccc(C(F)(F)F)c4)CC3)cc2)CCN(C2CC2)CC1 [Example 463] |  |  |  | > 10000 | 
CN(C)c1ccc(C(=O)C2CCN(c3ccc(S(=O)(=O)C4(C(=O)NO)CCOCC4)cc3)CC2)cc1 [Example 802] |  |  |  | > 10000 | IC50 (MMP-13; [2]): 2.3 nM
Cn1ccc2cc(C(=O)C3CCN(c4ccc(S(=O)(=O)C5(C(=O)NO)CCOCC5)cc4)CC3)ccc21 [Example 867] |  |  |  | > 10000 | IC50 (MMP-13; [2]): 16.5 nM

Reference: patent US6750228B1, “Aromatic sulfone hydroxamic acid metalloprotease inhibitor” (priority 1997, dated 2004)
